Measurements: US20100292255A1, “Therapeutic Compounds and Their Use in Treating Diseases and Disorders” (Myriad Pharmaceuticals, Inc., priority 2007, published 2010)

Tested on: T1, purified human Hsp90
T1 construct: purified human Hsp90 (Stressgen, SPP-770)
Test: Hsp90 binding assay: displacement of BODIPY-labeled geldanamycin measured by fluorescence polarization
Settings: BODIPY-GM 10 nM, Hsp90 30 nM, overnight at room temperature; for GM displacement from purified Hsp90 measured by FP Inhibition by 5 μM compd. (%): 5 μM compound; for IC50: read-out: GM displacement from purified Hsp90 measured by FP IC 50
Procedure, shortened: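 Purified human Hsp90 at 30 nM and 10 nM BODIPY-GM tracer were incubated overnight at room temperature with compound in 2% DMSO. The buffer was 20 mM HEPES-KOH pH 7.3, 50 mM KCl, 5 mM MgCl2, 20 mM Na2MoO4, 2 mM DTT. Background-subtracted mP values read at 485/530 nm were normalized to DMSO wells to give % inhibition.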

For `CC(=O)N1CCC(CCn2cnc(N)c3nc(Sc4cc5c(cc4[N+](=O)[O-])OCO5)nc2-3)CC1` [compound 71, 3-[2-(1-Acetylpiperidin-4-yl)ethyl]-8-[(6-nitro-1,3-benzodioxol-5-yl)thio]-3H-purin-6-amine], which “GM displacement from purified Hsp90 measured by FP Inhibition by 5 μM compd. (%)” value is on record?
Its value is 23.0%.

How did the “GM displacement from purified Hsp90 measured by FP Inhibition by 5 μM compd. (%)” value turn out when `CC(=O)N1CCC(CCn2cnc(N)c3nc(Sc4cc5c(cc4Cl)OCCO5)nc2-3)CC1` [compound 72, 3-[2-(1-Acetylpiperidin-4-yl)ethyl]-8-[(7-chloro-2,3-dihydro-1,4-benzodioxin-6-yl)thio]-3H-purin-6-amine] was run?
Its value is 23.0%.

With `CC(=O)N1CCC(CCn2c(Sc3cc4c(cc3Cl)OCCO4)nc3c(N)ncnc32)CC1` [compound 73, 9-[2-(1-Acetylpiperidin-4-yl)ethyl]-8-[(7-chloro-2,3-dihydro-1,4-benzodioxin-6-yl)thio]-9H-purin-6-amine] as the compound, how does the IC50 read?
Its IC50 is 260 nM.

`CCC(=O)N1CCC(CCn2cnc(N)c3nc(Sc4cc5c(cc4C#N)C(=O)CC5)nc2-3)CC1` [compound 74, 6-({6-Amino-3-[2-(1-propionylpiperidin-4-yl)ethyl]-3H-purin-8-yl}thio)-3-oxoindane-5-carbonitrile] was tested. Which “GM displacement from purified Hsp90 measured by FP Inhibition by 5 μM compd. (%)” value did it give?
Its value is 18.0%.

With `CC(=O)N1CCC(CCn2c(Sc3cc4c(cc3CC#N)OCO4)nc3c(N)ncnc32)CC1` [compound 75, [6-({9-[2-(1-Acetylpiperidin-4-yl)ethyl]-6-amino-9H-purin-8-yl}thio)-1,3-benzodioxol-5-yl]acetonitrile] as the compound, how does the IC50 read?
Its IC50 is 2500 nM.

How did the IC50 turn out when `Nc1ncnc2c1nc(Sc1cc3c(cc1I)CCC3)n2CCC1CCN(C=O)CC1` [compound 76, 4-(2-{6-Amino-8-[(6-iodo-2,3-dihydro-1H-inden-5-yl)thio]-9H-purin-9-yl}ethyl)piperidine-l-carbaldehyde] was run?
The IC50 was 70 nM.

With `COc1ccc(OC(F)(F)F)c(Sc2nc3c(N)ncnc3n2CCC2CCN(C=O)CC2)c1` [compound 77, 4-[2-(6-Amino-8-{[5-methoxy-2-(trifluoromethoxy)phenyl]thio}-9H-purin-9-yl)ethyl]piperidine-1-carbaldehyde] as the compound, how does the IC50 read?
The IC50 was 400 nM.

With `COc1ccc(OC(F)(F)F)c(Sc2nc3c(N)ncn(CCC4CCN(C=O)CC4)c-3n2)c1` [compound 78] as the compound, how does the “GM displacement from purified Hsp90 measured by FP Inhibition by 5 μM compd. (%)” value read?
Its value is 14.0%.

For `COc1ccc(C#N)c(Sc2nc3c(N)ncnc3n2CCC2CCN(C=O)CC2)c1` [compound 79], which IC50 is on record?
Its IC50 is 700 nM.

How did the “GM displacement from purified Hsp90 measured by FP Inhibition by 5 μM compd. (%)” value turn out when `COc1ccc(C#N)c(Sc2nc3c(N)ncn(CCC4CCN(C=O)CC4)c-3n2)c1` [compound 80] was run?
The value was 34.0%.

With `CCCC(=O)N1CCC(CCn2c(Sc3cc4c(cc3Br)OCCO4)nc3c(N)ncnc32)CC1` [compound 81, 8-[(7-Bromo-2,3-dihydro-1,4-benzodioxin-6-yl)thio]-9-[2-(1-butyrylpiperidin-4-yl)ethyl]-9H-purin-6-amine] as the compound, how does the IC50 read?
The IC50 was 100 nM.

How did the IC50 turn out when `CCCC(=O)N1CCC(CCn2c(Sc3cc4c(cc3Br)OCO4)nc3c(N)ncnc32)CC1` [compound 82, 8-[(6-Bromo-1,3-benzodioxol-5-yl)thio]-9-[2-(1-butyrylpiperidin-4-yl)ethyl]-9H-purin-6-amine] was run?
The IC50 was 295 nM.

`CCCC(=O)N1CCC(CCn2cnc(N)c3nc(Sc4cc5c(cc4Br)OCCO5)nc2-3)CC1` [compound 83, 8-[(7-Bromo-2,3-dihydro-1,4-benzodioxin-6-yl)thio]-3-[2-(1-butyrylpiperidin-4-yl)ethyl]-3H-purin-6-amine] was tested. Which “GM displacement from purified Hsp90 measured by FP Inhibition by 5 μM compd. (%)” value did it give?
Its value is 19.0%.

`Nc1ncnc2c1nc(Sc1cc3c(cc1Br)CCC3)n2CCC1CCN(C=O)CC1` [compound 84] was tested. Which IC50 did it give?
The IC50 was 20 nM.

Which “GM displacement from purified Hsp90 measured by FP Inhibition by 5 μM compd. (%)” value does the source give for `Nc1ncn(CCC2CCN(C=O)CC2)c2nc(Sc3cc4c(cc3Br)CCC4)nc1-2` [compound 85] here?
Its value is 35.0%.

With `Nc1ncnc2c1nc(Sc1cc3c(cc1Br)C(=O)CC3)n2CCC1CCN(C=O)CC1` [compound 86, 4-(2{6-Amino-8-[(6-bromo-l-oxo-2,3-dihydro-1H-inden-5-yl)thio]-9H-purin-9-yl}ethyl)piperidine-1-carbaldehyde] as the compound, how does the IC50 read?
The IC50 was 60 nM.

With `Nc1ncn(CCC2CCN(C=O)CC2)c2nc(Sc3cc4c(cc3Br)C(=O)CC4)nc1-2` [compound 87, 4-(2-{6-Amino-8-[(6-bromo-1-oxo-2,3-dihydro-1H-inden-5-yl)thio]-3H-purin-3-yl}ethyl)piperidine-l-carbaldehyde] as the compound, how does the “GM displacement from purified Hsp90 measured by FP Inhibition by 5 μM compd. (%)” value read?
The value was 20.0%.

How did the IC50 turn out when `C[C@H](O)C(=O)N1CCC(CCn2c(Sc3cc4c(cc3Br)OCCO4)nc3c(N)ncnc32)CC1` [compound 88, (2S)-1-[4-(2-{6-Amino-8-[(7-bromo-2,3-dihydro-1,4-benzodioxin-6-yl)thio]-9H-purin-9-yl}ethyl)piperidin-1-yl]-1-oxopropan-2-ol] was run?
The IC50 was 80 nM.

How did the IC50 turn out when `Nc1ncnc2c1nc(Sc1cc3c(cc1Br)OCCO3)n2CCC1CCN(C(=O)CO)CC1` [compound 90, 2-[4-(2-{6-Amino-8-[(7-bromo-2,3-dihydro-1,4-benzodioxin-6-yl)thio]-9H-purin-9-yl}ethyl)piperidin-1-yl]-2-oxoethanol] was run?
The IC50 was 90 nM.

Which “GM displacement from purified Hsp90 measured by FP Inhibition by 5 μM compd. (%)” value does the source give for `Nc1ncn(CCC2CCN(C(=O)CO)CC2)c2nc(Sc3cc4c(cc3Br)OCCO4)nc1-2` [compound 91, 2-[4-(2-{6-Amino-8-[(7-bromo-2,3-dihydro-1,4-benzodioxin-6-yl)thio]-3H-purin-3-yl}ethyl)piperidin-1-yl]-2-oxoethanol] here?
Its value is 32.0%.

`CC(C)(O)C(=O)N1CCC(CCn2c(Sc3cc4c(cc3Br)OCCO4)nc3c(N)ncnc32)CC1` [compound 92, 1-[4-(2-{6-Amino-8-[(7-bromo-2,3-dihydro-1,4-benzodioxin-6-yl)thio]-9H-purin-9-yl}ethyl)piperidin-1-yl]-2-methyl-1-oxopropan-2-ol] was tested. Which IC50 did it give?
The IC50 was 90 nM.

With `CC(C)(O)C(=O)N1CCC(CCn2cnc(N)c3nc(Sc4cc5c(cc4Br)OCCO5)nc2-3)CC1` [compound 93, l-[4-(2-{6-Amino-8-[(7-bromo-2,3-dihydro-1,4-benzodioxin-6-yl)thio]-3H-purin-3-yl}ethyl)piperidin-1-yl]-2-methyl-1-oxopropan-2-ol] as the compound, how does the “GM displacement from purified Hsp90 measured by FP Inhibition by 5 μM compd. (%)” value read?
The value was 53.0%.

Which “GM displacement from purified Hsp90 measured by FP Inhibition by 5 μM compd. (%)” value does the source give for `COc1ccc(Br)c(Sc2nc3c(N)ncn(CCC4CCN(C(=O)CO)CC4)c-3n2)c1` [compound 94, 2-[4-(2-{6-Amino-8-[(2-bromo-5-methoxyphenyl)thio]-3H-purin-3-yl}ethyl)piperidin-1-yl]-2-oxoethanol] here?
Its value is 10.0%.

For `C[C@H](O)C(=O)N1CCC(CCn2c(Sc3cc4c(cc3C#N)OCO4)nc3c(N)ncnc32)CC1` [compound 95, 6-{[6-Amino-9-(2-{1-[(2S)-2-hydroxypropanoyl]piperidin-4-yl}ethyl)-9H-purin-8-yl]thio}-l,3-benzodioxole-5-carbonitrile], which IC50 is on record?
Its IC50 is 700 nM.

For `C[C@H](O)C(=O)N1CCC(CCn2cnc(N)c3nc(Sc4cc5c(cc4C#N)OCO5)nc2-3)CC1` [compound 96, 6-{[6-Amino-3-(2-{1-[(2S)-2-hydroxypropanoyl]piperidin-4-yl}ethyl)-3H-purin-8-yl]thio}-1,3-benzodioxole-5-carbonitrile], which “GM displacement from purified Hsp90 measured by FP Inhibition by 5 μM compd. (%)” value is on record?
The value was 13.0%.

Which IC50 does the source give for `N#Cc1cc2c(cc1Sc1nc3c(N)ncnc3n1CCC1CCN(C(=O)CO)CC1)OCO2` [compound 97, 6-({6-Amino-9-[2-(1-glycoloylpiperidin-4-yl)ethyl]-9H-purin-8-yl}thio)-1,3-benzodioxole-5-carbonitrile] here?
The IC50 was 350 nM.

Which IC50 does the source give for `C[C@H](O)C(=O)N1CCC(CCn2c(Sc3cc4c(cc3C#N)OCCO4)nc3c(N)ncnc32)CC1` [compound 99, 7-{[6-Amino-9-(2-{1-[(2S)-2-hydroxypropanoyl]piperidin-4-yl}ethyl)-9H-purin-8-yl]thio}-2,3-dihydro-1,4-benzodioxine-6-carbonitrile] here?
Its IC50 is 490 nM.

With `C[C@H](O)C(=O)N1CCC(CCn2cnc(N)c3nc(Sc4cc5c(cc4C#N)OCCO5)nc2-3)CC1` [compound 100, 7-{[6-Amino-3-(2-{1-[(2S)-2-hydroxypropanoyl]piperidin-4-yl}ethyl)-3H-purin-8-yl]thio}-2,3-dihydro-1,4-benzodioxine-6-carbonitrile] as the compound, how does the “GM displacement from purified Hsp90 measured by FP Inhibition by 5 μM compd. (%)” value read?
The value was 27.0%.

How did the IC50 turn out when `N#Cc1cc2c(cc1Sc1nc3c(N)ncnc3n1CCC1CCN(C(=O)CO)CC1)OCCO2` [compound 101, 7-({6-Amino-9-[2-(1-glycoloylpiperidin-4-yl)ethyl]-9H-purin-8-yl}thio)-2,3-dihydro-1,4-benzodioxine-6-carbonitrile] was run?
Its IC50 is 200 nM.

For `COc1ccc(OC(F)(F)F)c(Sc2nc3c(N)ncnc3n2CCC2CCN(C(=O)CO)CC2)c1` [compound 102, 2-{4-[2-(6-Amino-8-{[5-methoxy-2-(trifluoromethoxy)phenyl]thio}-9H-purin-9-yl)ethyl]piperidin-1-yl}-2-oxoethanol], which IC50 is on record?
The IC50 was 280 nM.

Which “GM displacement from purified Hsp90 measured by FP Inhibition by 5 μM compd. (%)” value does the source give for `COc1ccc(OC(F)(F)F)c(Sc2nc3c(N)ncn(CCC4CCN(C(=O)CO)CC4)c-3n2)c1` [compound 103, 2-{4-[2-(6-Amino-8-{[5-methoxy-2-(trifluoromethoxy)phenyl]thio}-3H-purin-3-yl)ethyl]piperidin-1-yl}-2-oxoethanol] here?
Its value is 18.0%.

For `COc1ccc(C#N)c(Sc2nc3c(N)ncnc3n2CCC2CCN(C(=O)CO)CC2)c1` [compound 104, 2-({6-Amino-9-[2-(1-glycoloylpiperidin-4-yl)ethyl]-9H-purin-8-yl}thio)-4-methoxybenzonitrile], which IC50 is on record?
Its IC50 is 800 nM.

Which “GM displacement from purified Hsp90 measured by FP Inhibition by 5 μM compd. (%)” value does the source give for `COc1ccc(C#N)c(Sc2nc3c(N)ncn(CCC4CCN(C(=O)CO)CC4)c-3n2)c1` [compound 105, 2-({6-Amino-3-[2-(1-glycoloylpiperidin-4-yl)ethyl]-3H-purin-8-yl}thio)-4-methoxybenzonitrile] here?
The value was 17.0%.
